Measurements as given in patent US9512066B2, “Enhancers of protein degradation” (MAX-DELBRUCK-CENTRUM FUR MOLEKULARE MEDIZIN, priority 2009, dated 2016).
Converted amounts (≈) assume the structure as drawn.

Legend:
BSA = BSA (Bos taurus, UniProt P02769); test: Hydrazone hydrolysis in ammonium acetate solution with addition of BSA (RP-HPLC); format: physicochemical; conditions: bovine, BSA (5 µM) in ammonium acetate solution, 20 μM hydrazone, 10 mM ammonium acetate, read-out: free soluble hydrazone after addition of BSA (converted)
Protocol: FIG. 4 illustrates the difference in the hydrazone hydrolysis with and without the addition of BSA of product example 1. A freshly prepared 10 mM methanol solution of product example 1 was diluted with an ammonium acetate (10 mM) BSA (5 μM) solution to a final concentration of 20 μM. The free soluble hydrazone was analyzed via RP-HPLC over a sample period of 24 h. The injection volume was 20 μL, the sample was stored at room temperature. The hydrazone peak was exploited for the determination of the hydrazone concentration. After the addition of BSA approximately […] of the available hydrazone was directly associated to the protein. Afterwards, the free hydrazone concentration was almost constant, between 96% and 91%, over the sample period.

[1] = Insolubility observed in the HepG2 viability assay; format: physicochemical; conditions: RPMI culture medium of the HepG2 viability assay, 37 °C, kinetic from dmso stock, RPMI medium (1% L-Glu, 10% FCS), read-out: concentration from/at which insoluble
Protocol: Cell viability was assayed on HepG2 cells. HepG2 cells were cultured in 96-well black culture plates with transparent bottom in RPMI medium (1% L-Glu, 10% FCS). 3 hours after plating, different drug concentrations (0.1 μM-100 μM) or DMSO as control were added. Chlorpromazine hydrochloride (Sigma, # C0982) and cycloheximide (Sigma, # C1988) were used as control substances. Each concentration was run in triplicates. After 48 hours of incubation, Alamar Blue reagent (BIOSOURCE, # DAL1100) was added and plates were incubated for 4 hours at […]. Absorbance was measured in the Tecan-plate reader (Tecan, infinite M200) at 570 nm and 600 nm. Product example 1 was insoluble from a concentration of 50 μM, product example 33 from 30 μM and product example 23 at 100 μM.

tubulin = test: Tubulin polymerization assay (Cytoskeleton, Inc.); format: biochemical; conditions: various concentrations
Protocol: The tubulin polymerization assay (Cytoskeleton, Inc., Denver, Colo., USA, #BK011) was performed in accordance to the instruction manual.

HTT-Q53 protein = test: GST-Htt-Q53 filter assay with conformational CAG antibody; format: biochemical; conditions: samples at 0, 4, 5 and 6 h, 30° C.
Protocol: GST-Htt-Q53-protein stock solution was ultra-centrifugated (40 min, 55.000 rpm [TLA-55 rotor], 4° C.); the supernatant was diluted with H2O to a final concentration of 2 μM. DMSO as a control, or drugs at various concentrations were added to the supernatant of GST-Htt-Q53 protein which was preincubated with PreScission Protease (GE Healthcare, #27-0843-01) in Tris-buffer (A:B=1:1; A:50 mM Tris, 150 mM NaCl, pH=6.8; B:1 mM EDTA, pH=8.0+10 mM DTT) and incubated at 30° C. (300 rpm). Samples were taken at 0, 4, 5 and 6 h. The samples were diluted with SDS-buffer (4% SDS, 100 mM DTT) and heated at 98° C. for 5 min. Samples were filtered through a cellulose-acetate membrane which was equilibrated with SDS solution (0.1%). The membrane was washed twice (SDS, 0.1%), blocked with skim milk (3% in PBS) for 30 min and developed with CAG antibody over night at 4° C. and with peroxidase labeled anti rabbit-antibody for 1 h at room temperature. The membrane was washed (2×TBS-0.05% Tween-20, 2×TBS) and luminescence was recorded with Chem Glow.

Chain of BSA (P02769 25-607): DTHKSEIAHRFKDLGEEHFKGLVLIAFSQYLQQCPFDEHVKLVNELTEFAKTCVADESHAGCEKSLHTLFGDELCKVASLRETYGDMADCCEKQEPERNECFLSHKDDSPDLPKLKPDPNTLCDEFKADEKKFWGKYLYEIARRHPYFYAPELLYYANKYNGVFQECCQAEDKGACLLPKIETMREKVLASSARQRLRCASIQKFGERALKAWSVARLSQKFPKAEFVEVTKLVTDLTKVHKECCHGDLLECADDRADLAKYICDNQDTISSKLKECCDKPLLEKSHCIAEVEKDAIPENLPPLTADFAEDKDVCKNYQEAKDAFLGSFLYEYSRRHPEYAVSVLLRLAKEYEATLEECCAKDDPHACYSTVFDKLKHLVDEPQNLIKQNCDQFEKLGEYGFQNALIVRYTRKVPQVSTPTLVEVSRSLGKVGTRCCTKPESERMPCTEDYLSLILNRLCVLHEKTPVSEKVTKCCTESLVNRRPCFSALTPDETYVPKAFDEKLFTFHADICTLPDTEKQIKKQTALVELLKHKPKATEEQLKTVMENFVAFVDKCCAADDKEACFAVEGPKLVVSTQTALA

## Oc1ccc(C=NNc2c(Cl)cc(C(F)(F)F)cc2Cl)c(O)c1 [Example 1, 4-((2-(2,6-Dichloro-4-(trifluoromethyl)phenyl)hydrazono)methyl)benzene-1,3-diol]
BSA
  fraction unbound at 20 µM: ~0.83
[1]
  solubility: ≥ 50 µM
tubulin
  effect on tubulin polymerization: no effect
HTT-Q53 protein
  change in conformation of the HTT-Q53 protein detected by the conformational CAG antibody: time-dependent change in conformation

## Oc1ccc(C=NNc2c(F)c(F)c(F)c(F)c2F)c(O)c1 [Example 23, 4-((2-(Perfluorophenyl)hydrazono)methyl)benzene-1,3-diol]
[1]
  solubility: 100 µM (≈ 31.8 µg/mL)
HTT-Q53 protein
  change in conformation of the HTT-Q53 protein detected by the conformational CAG antibody: time-dependent change in conformation

## O=[N+]([O-])c1ccc(NN=Cc2ccc(O)cc2O)cc1 [Example 33, 4-((2-(4-Nitrophenyl)hydrazono)methyl)benzene-1,3-diol]
[1]
  solubility: ≥ 30 µM
